Assay results: ChEMBL document CHEMBL3832043, “DailyMed|setid=ef14e332-51ac-ea97-3542-9bc92557dbed | PROPOFOL- propofol injection, emulsion|APP Pharmaceuticals, LLC”

How the values were obtained:
[1] = Pharmacokinetic parameters of Propofol following intravenous administration in subjects.; conditions: human, in vivo
[2] = Pharmacokinetic parameters for Propofol following multiple intravenous administration in subjects.; conditions: human, in vivo

With `CC(C)c1cccc(C(C)C)c1O` [PROPOFOL] the clearance [1] was 23 to 50 mL/min/kg and the half-life [2] was 24 to 72 h.
